Assay results: ChEMBL document CHEMBL4673289, “Design, synthesis and biological evaluation of imidazolopyridone derivatives as novel BRD4 inhibitors” (Bioorg Med Chem, 2021)
The source made the active and inactive calls. The rule behind the calls is not given here.

Key:
[1] = target: T1, Bromodomain-containing protein 4 (Homo sapiens, UniProt O60885); assay: Inhibition of BRD4 (unknown origin) at 1 uM preincubated for 15 mins followed by substrate addition and measured after 1 hr by AlphaScreen assay relative to control; conditions: time 75.0 min
[2] = target: T1, Bromodomain-containing protein 4; assay: Inhibition of BRD4 (unknown origin) preincubated for 15 mins followed by substrate addition and measured after 1 hr by AlphaScreen assay relative to control
[3] = test system: SMMC-7721; assay: Antiproliferative activity against human SMMC-7721 cells assessed as cell growth inhibition at 2 uM measured after 48 to 72 hrs by MTT assay relative to control; assay type: functional; conditions: time 48-72 hrs, read-out: GI
[4] = test system: BXPC-3; assay: Antiproliferative activity against human BXPC-3 cells assessed as cell growth inhibition at 2 uM measured after 48 to 72 hrs by MTT assay relative to control; assay type: functional; conditions: time 48-72 hrs, read-out: GI
[5] = test system: PANC-1; assay: Antiproliferative activity against human PANC-1 cells assessed as cell growth inhibition at 2 uM measured after 48 to 72 hrs by MTT assay relative to control; assay type: functional; conditions: time 48-72 hrs, read-out: GI
[6] = test system: Panc02; assay: Antitumor activity against mouse Panc02 allografted in BALB/c mouse assessed as reduction in tumor weight at 100 mg/kg, ip administered every day for 20 days relative to control; assay type: functional; conditions: 480 h, time 20 day, read-out: TGI
[7] = Toxicity in BALB/c mouse allografted with mouse Panc02 cells assessed as effect on body weight at 100 mg/kg, ip administered every day measured after 19 days; assay type: organism-based; conditions: in vivo, 456 h, time 19 day
[8] = test system: Mus musculus; assay: Upregulation of caspase 3 in BALB/c mouse allografted with mouse Panc02 cells […] at 100 mg/kg, ip administered every day measured after 20 days by immunohistochemical analysis; assay type: functional, organism-based; conditions: time 20.0 day
[9] = test system: Mus musculus; assay: Downregulation of Ki67 expression in BALB/c mouse allografted with mouse Panc02 cells […] at 100 mg/kg, ip administered every day measured after 20 days by immunohistochemical analysis; assay type: functional, organism-based; conditions: time 20.0 day

| inhibition [1] | IC50 [2] | SMILES | inhibition of growth at 2 µM [3] | inhibition of growth at 2 µM [4] | inhibition of growth at 2 µM [5] | other results |
| --- | --- | --- | --- | --- | --- | --- |
| 95.2% | 261 nM | CCS(=O)(=O)c1ccc(Oc2cc(-c3c(C)noc3C)ccc2C)c(-c2cn(C)c(=O)c3cncn23)c1 | 11.4% | 30.2% | 20.6% |  |
| 64.9% |  | CCS(=O)(=O)c1ccc(Oc2ccc(Cl)c(-c3c(C)noc3C)c2)c(-c2cn(C)c(=O)c3cncn23)c1 |  |  |  |  |
| 96.5% | 254 nM | CCS(=O)(=O)c1ccc(Oc2ccc(C)c(-c3c(C)noc3C)c2)c(-c2cn(C)c(=O)c3cncn23)c1 | 19.9% | 35.8% | 23.7% |  |
| 78.1% |  | CCS(=O)(=O)c1ccc(Oc2ccc(F)c(-c3c(C)noc3C)c2)c(-c2cn(C)c(=O)c3cncn23)c1 |  |  |  |  |

Continued, compound first:

| SMILES | inhibition [1] | IC50 [2] | inhibition of growth at 2 µM [3] | inhibition of growth at 2 µM [4] | inhibition of growth at 2 µM [5] | other results |
| --- | --- | --- | --- | --- | --- | --- |
| CCS(=O)(=O)c1ccc(Oc2cc(-c3c(C)noc3C)ccc2Cl)c(-c2cn(C)c(=O)c3cncn23)c1 | 86.3% |  |  |  |  |  |
| CCS(=O)(=O)c1ccc(Oc2cc(-c3c(C)noc3C)ccc2C#N)c(-c2cn(C)c(=O)c3cncn23)c1 | 31.2% |  |  |  |  |  |
| CCS(=O)(=O)c1ccc(Oc2cc(-c3c(C)noc3C)ccc2F)c(-c2cn(C)c(=O)c3cncn23)c1 | 99.5% | 152 nM | 21.3% | 33.2% | 19.6% |  |
| CCS(=O)(=O)c1ccc(Oc2cc(F)c(F)c(F)c2)c(-c2cn(C)c(=O)c3cncn23)c1 | 40.1% |  |  |  |  |  |
| CCS(=O)(=O)c1ccc(Oc2cccc(-c3c(C)noc3C)n2)c(-c2cn(C)c(=O)c3cncn23)c1 | 70.2% |  |  |  |  |  |
| Nc1ccn([C@@H]2O[C@H](CO)[C@@H](O)C2(F)F)c(=O)n1 [GEMCITABINE] |  |  |  |  |  | inhibition in vivo at 100 mg/kg [6]: 70%; Activity [7]: Non-Toxic; Activity [8]: Active; Activity [9]: Active |
| Cc1noc(C)c1-c1cccc(Oc2ccc(S(C)(=O)=O)cc2-c2cn(C)c(=O)c3cncn23)c1 | 62.7% |  |  |  |  |  |
| CCS(=O)(=O)c1ccc(Oc2cc(-c3c(C)noc3C)ccc2OC)c(-c2cn(C)c(=O)c3cncn23)c1 | 99.9% | 56 nM | 18.4% | 42.2% | 16.2% |  |
| Cc1sc2c(c1C)C(c1ccc(Cl)cc1)=N[C@@H](CC(=O)C(C)(C)C)c1nnc(C)n1-2 | 99.5% | 88 nM | 12.2% | 31.1% | 17.1% |  |
| CCS(=O)(=O)c1ccc(Oc2cccc(-c3c(C)noc3C)c2)c(-c2cn(C)c(=O)c3cncn23)c1 | 93.2% | 435 nM | 18.2% | 41.2% | 21.6% |  |
